Test results from BindingDB's records for doi:10.1021/jm200691d (University of Bologna, 2011).

Legend:
Acetylcholinesterase [1] = biological target: T1, Acetylcholinesterase (Homo sapiens, UniProt P22303); assay: Inhibition of human recombinant AChE-induced amyloid beta (1-40) aggregation assessed as fibril formation after 24 hrs by thioflavin T-based fluorometric assay
Acetylcholinesterase [2] = biological target: T1, Acetylcholinesterase; assay: Inhibition of human recombinant AChE using acetylthiocholine iodide as substrate after 20 mins preincubation by Ellman method

T1 sequence (P22303 whole entry): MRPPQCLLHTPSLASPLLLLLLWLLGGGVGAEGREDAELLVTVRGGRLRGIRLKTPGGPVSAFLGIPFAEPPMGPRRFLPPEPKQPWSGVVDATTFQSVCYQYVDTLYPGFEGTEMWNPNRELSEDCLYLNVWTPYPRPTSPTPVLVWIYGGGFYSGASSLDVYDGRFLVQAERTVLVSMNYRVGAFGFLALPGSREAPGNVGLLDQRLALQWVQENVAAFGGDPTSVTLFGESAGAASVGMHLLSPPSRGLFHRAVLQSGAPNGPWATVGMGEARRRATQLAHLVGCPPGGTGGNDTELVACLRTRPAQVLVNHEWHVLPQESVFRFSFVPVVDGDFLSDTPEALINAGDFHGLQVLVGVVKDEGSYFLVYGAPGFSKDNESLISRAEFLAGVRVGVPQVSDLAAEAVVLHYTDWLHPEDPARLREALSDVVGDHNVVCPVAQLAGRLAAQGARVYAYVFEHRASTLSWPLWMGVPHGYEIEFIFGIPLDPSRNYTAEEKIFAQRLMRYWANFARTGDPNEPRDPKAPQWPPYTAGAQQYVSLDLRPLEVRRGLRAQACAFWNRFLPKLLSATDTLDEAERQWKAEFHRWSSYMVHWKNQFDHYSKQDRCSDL

**Q.** What does the source list for `CCN(CCCCCC=Nc1cc(O)c2ccccc2c1O)Cc1ccccc1OC`?
**A.** IC50 (Acetylcholinesterase [1]): 45 µM; IC50 (Acetylcholinesterase [2]): 45 µM
